We go through three compounds from PMC9612231, “Antileishmanial Anthracene Endoperoxides: Efficacy In Vitro, Mechanisms and Structure-Activity Relationships” (Molecules, 2022).

Molecules are shown by their SMILES.

Assay [1] concerns LtP, axenic Leishmania tarentolae amastigotes and Leishmania donovani promastigotes. On the set-up: method as in PMID 29996524. Conditions: read-out: IC50 in viability tests; cited from earlier work.
The next assay relates to LtP. Put plainly: Superoxide radical formation in LtP by the EPR/CMH method. The conditions noted are these: antimycin A 20 µM, 20 min at 25 °C. It counts as cell-based, Leishmania tarentolae. The source says: Since mitochondrial inhibition can be triggered by secondary damage in the respective cells, for example, by superoxide radicals, we studied the formation of superoxide radicals in LtP by the EPR/hydroxyl-3-methoxycarbonyl-2,2,5,5-tetramethylpyrrolidine hydrochloride (CMH) method (Figure 10). […] In the presence of antimycin A (AA, an inhibitor of mitochondrial complex III), the superoxide radical formation in LtP is increased by more than 150% (Figure 11).
An aliquot of the LtP cell culture equivalent to 5 × 10^8 LtP was transferred into a 1.5 mL Eppendorf tube and was centrifuged (Hettich Universal 16, 20 °C, 2000× g, 10 min). After removal of the supernatant, the cell pellet was re-suspended in 1 mL PBS and centrifuged again and the supernatant discarded. The cell pellet was re-suspended in 1 mL of PBS with 15 mM glucose (PBS-gluc), giving a final cell density of 5 × 10^8 LtP/mL. AcEP/Ac compounds were added (100 µM final concentration) to aliquots of 50 µL of this cell suspension in 1.5 mL Eppendorf tubes and incubated for 20 min at 25 °C. Then, DFO (100 μM final concentration), DTPA (25 μM final concentration), and detection agent CMH (400 µM final concentration) were added to the aliquots before measurement. Samples containing only buffer (PBS-gluc) or only LtP (in PBS-gluc) were used as negative controls, while samples containing 20 μM AA were used as positive control. An aliquot of 17 µL suspension was aspirated into a PTFE tube (ø 0.7 mm). The tube was folded into a quartz tube (ø 4 mm outer diameter) and then transferred to the MD5 resonator of the EPR spectrometer. The measurement was started using following parameters: microwave frequency 9.682 GHz; microwave power 20 mW, modulation frequency 100 kHz; modulation amplitude 1 G; time constant 0.82 s; center field 3448 G; sweep width 100 G; scan time 84 s; attenuation 70 dB; separate scans 5. Based on a calibration curve with carboxy proxyl (CP^●) changes of the peak-to-peak intensity of CM^● spectra were converted to CMH oxidation rates (superoxide radical generation).

Assay [2] relates to Leishmania tarentolae promastigotes (LtP). Description: Resazurin viability assay for LtP. It counts as cell-based. Conditions: Leishmania tarentolae, 48 h, read-out: LtP IC50. The method, then:
(§1) The influence of AcEP and their analogs (Ac) on the viability of cells was tested in Leishmania tarentolae promastigotes (LtP) and J774 macrophages (Table 2). Based on the changes of viability of the respective cell lines at different compound concentrations, IC50 values were calculated. In Table 2, the IC50 values in both cell lines were compared for the individual compounds. From the ratio of IC50 values in J774 macrophages to IC50 values in LtP, an in vitro selectivity was calculated.
LtP (strain P10 from Jena Bioscience, Jena, Germany) were cultivated according to manufacturer instructions up to passage 50 in brain heart infusion medium (37 g/L, pH 7.4) and supplemented with 5 mg/L hemin and 25,000 IU/L penicillin and 25 mg/L streptomycin in 50 mL TubeSpin bioreactors (TPP, Trasadingen. Switzerland). LtP were grown at 27 °C in an incubator (Ehret, Emmendingen, Germany) and agitated at a frequency of 0.05 s^−1. […] For experiments, LtP were used one day after passage. The cell number was calculated by measuring the optical density (OD) of the culture at 600 nm with a U-1100 photometer (Hitachi Ltd., Tokyo, Japan) and applying the formula × 10^6 cells/mL = OD600nm × 0.969 × 124 × dilution factor [53].
Assay medium of YEM (20.7 g/L yeast extract powder, 1.2 g/L K2HPO4, 0.2 g/L KH2PO4, 2.9 g/L glucose, pH 7.4) and PBS (1:1, v/v), 25,000 U/L penicillin, 25 mg/L streptomycin, and 7.7 µM hemin was prepared. Aliquots of 200 µL of this medium and 2 × 10^6 LtP/mL (where required) were distributed in non-treated cell culture 96-well plates. Compounds (dissolved in DMSO) were added with starting concentrations of 25 µM (Pen) or 200 µM (AcEP/Ac), and then, serial dilutions were carried out resulting in a set of concentrations (25, 5, 1, 0.2, 0.04, and 0.008 µM) or (200, 40, 8, 1.6, 0.32, and 0.064 µM). For each compound concentration, at least triplicates on each plate were performed. After incubation of the plates at 27 °C for 48 h, 50 µL of resazurin solution (final concentration in wells 20 µM) was added to each well and after 4 h of incubation, the fluorescence was measured at 560 nm excitation and 590 nm emission using a plate reader (Perkin Elmer EnSpire, Rodgau, Germany) (adapted from). Combination assays for viability in the presence of PIH and NAC were performed the same way. […] All tests were repeated at least on four different weeks of cultivation.
(§2) Calculations were carried out using Microsoft Excel 2016 (Microsoft). The graphs were created using Origin 6.1 (OriginLab Corporation, Northampton, MA, USA). For all groups of experimental data, mean and standard deviation (SD) were calculated. Statistically significant differences between groups of sample data were identified by unpaired two-tailed Student’s t-test. Differences on the level of p < 0.05 were considered significant. The number of replicates is indicated at the respective figures/tables. The half-maximal inhibitory concentrations (IC50) were determined from non-linear concentration-response curves using a four-parameter logistic model and expressed as the mean ± SD.
Background: Alamar Blue is a resazurin reagent that responds to reducing activity.

In a further assay the test system is J774 macrophages. Put plainly: Resazurin viability assay for J774 macrophages. It is filed as cell-based, murine. The conditions noted are these: Mus musculus, J774, 48 h, read-out: J774 IC50, resazurin viability, endpoint 48 h, 10^5 J774 cells/mL, mean ± SD of 4–8 experiments. On the procedure:
as §1
The murine macrophage cell line J774A.1 (ATCC, TIB-67™, Wesel, Germany) was cultivated up to passage 30 in DMEM (high glucose, 3.7 g/L NaHCO3, pH 7.4) with 25,000 IU/L penicillin, 25 mg/L streptomycin, and 10% FCS (heat-inactivated) in 50 mL TubeSpin bioreactors. J774 cells were incubated at 37 °C and 5% CO2 on a roller culture apparatus (5 rpm) in a Heraeus Cytoperm 8080 incubator (Thermo Electron Corp., Vienna, Austria). To determine the cell count, the cell suspension was re-suspended and diluted 1:2 with phosphate-buffered saline (PBS): 137 mM NaCl, 1.4 mM KH2PO4, 4.3 mM Na2HPO4, and 2.7 mM KCl, pH 7.4. After fixation of the cells by mixing the cell suspension 1:1 with a formaldehyde solution (2%, v/v), aliquots of the resulting suspension were transferred into a standard Neubauer chamber (VWR, Austria) and counted manually using a light microscope (Motic BA310, Vienna, Austria) at a magnification of 40 times. J774 cells were passaged twice a week in a ratio of 1:10.
DMEM containing 25,000 U/L penicillin, 25 mg/L streptomycin, 10% FCS, and 1 × 10^5 J774/mL was prepared. This mixture (200 µL) was distributed in cell culture-treated 96-well plates, except the control wells which contained only DMEM. The cells were incubated for 24 h at 37 °C and 5% CO2 to allow attachment. Afterwards the medium and non-adherent cells were removed by washing with PBS, and then, 200 µL DMEM was added to attached cells. Compounds dissolved in DMSO were added in starting concentrations of 25 µM (Pen) or 200 µM (AcEP/Ac), and then, serial dilutions were carried out resulting in the same concentration steps as listed for LtP. For each compound concentration triplicates on each plate were performed. […], 50 µL of resazurin solution (final concentration 20 µM) was added, and after 4 h of incubation, the fluorescence was measured at 560 nm excitation and 590 nm emission using a plate reader (Perkin Elmer EnSpire, Rodgau, Germany). All tests were repeated at least on four different weeks of cultivation.
as §2

For the compound `O=C1c2ccccc2C(=O)c2ccccc21` [anthraquinone, reference compound], in assay [1], the IC50 was greater than 100 µM.
As for `CCCCCC[C@H]1C(=O)O[C@H](C)[C@H](NC(=O)c2cccc(NC=O)c2O)C(=O)O[C@@H](C)[C@@H]1OC(=O)CC(C)C` [antimycin A, reference compound], in the assay on LtP, the “Increase of superoxide radical formation in LtP” value is reported as “more than 150%”.
As for `c1ccc2cc3ccccc3cc2c1` [Ac, anthracene], the IC50 in assay [2] was greater than 200 µM; in the assay with J774 macrophages, greater than 200 µM; in assay [1], greater than 100 µM.
